Assay results published in US12281113B2, “Crystalline forms of a KRas G12C inhibitor” (MIRATI THERAPEUTICS, INC., priority 2020, dated 2025).
“And” between values parts separate entries of the source, which are not always exact repeats. Identical values can stand only once.

Tests used:
Assay type in all cases: physicochemical
[1] = 1 month stability of MRTX849 crystalline vs amorphous, HPLC evaluation after accelerated stress conditions
[2] = Comparative thermal stability study of Form A, Form B and amorphous MRTX849 Drug Substance; details: for change in appearance on storage: two weeks at 60° C., two months at 25° C./60% RH and 40° C./75% RH
Protocol: (§1) 40° C./75% RH and 60° C. in loosely capped, foil-wrapped small glass vials. Data was obtained for up to two weeks for samples stored at 60° C. and up to two months for samples stored at 25° C./60% RH and 40° C./75% RH. In addition, data was generated from photostability study performed on all three lots as a part of the protocol.

[3] = Photostability study (1/2 ICH conditions)
Protocol: as §1

[4] = Dynamic vapor sorption, 5% to 95% RH
Protocol: Vapor Sorption isotherms were obtained using a Surface Measurement System (SMS) DVS Intrinsic moisture sorption analyzer, controlled by DVS Intrinsic Control software. Samples were not dried prior to analysis. Sorption and desorption data were collected over a range of 5%-95% relative humidity (RH) at 10% RH increments under a nitrogen purge. The equilibrium criterion used for analysis was less than 0.0100% weight change in 5 minutes with a maximum equilibration time of 3 hours.
Vapor sorption data were collected on a Surface Measurement System DVS Intrinsic instrument. Samples were not dried prior to analysis. Sorption and desorption data were collected over a range from 5% to 95% RH at 10% RH increments under a nitrogen purge. The equilibrium criterion used for analysis was less than 0.0100% weight change in 5 minutes with a maximum equilibration time of 3 hours.

[5] = Dynamic vapor sorption isotherm, 25° C., 0-90% RH; details: for weight gain (DVS): sorption
Protocol: (§2) Sorption isotherms of crystalline Form A were obtained using a SMS GVS Intrinsic moisture sorption analyzer, controlled by GVS Intrinsic Control software. The sample temperature was maintained at 25° C. by the instrument controls. The humidity was controlled by mixing streams of dry and wet nitrogen, with a total flow rate of 200 ml/min. The relative humidity was measured by a calibrated Rotronic probe (dynamic range of 1.0-100% RH), located near the sample. The weight change (mass relaxation) of the sample as a function of % RH was constantly monitored by a microbalance (accuracy ±0.005 mg).
(§3) The sample was loaded and unloaded at 40% RH and 25° C. (typical room conditions). A moisture sorption isotherm was performed as outlined below (2 scans per complete cycle). The standard isotherm was performed at 25° C. at 10% RH intervals over a 0-90% RH range. A double cycle (4 scans) was carried out. Data analysis was carried out within Microsoft Excel using the DVS Analysis Suite.
as §2, with “B” for “A”, “DVS” for “GVS”, “change,” for “change”
as §3, with “Briefly, a sample of crystalline Form B was placed in a tared mesh stainless steel basket under ambient conditions. The sample” for “The sample”

[6] = 0.5 × ICH: Vis Stress at 600 klux-hrs, UV Stress at 100 W-hr/m^2

Row | Appearance ([2]; 1 Month 25° C./60% RH) | Total impurities ([2]; 1 Month 25° C./60% RH) [%] | Appearance ([2]; 1 Month 40° C./75% RH) | Total impurities ([2]; 1 Month 40° C./75% RH) [%] | Appearance ([2]; 1 Week 60° C.) | Total impurities ([2]; 1 Week 60° C.) [%] | Appearance ([2]; 2 Months 25° C./60% RH) | Total impurities ([2]; 2 Months 25° C./60% RH) [%] | Appearance ([2]; 2 Months 40° C./75% RH) | Total impurities ([2]; 2 Months 40° C./75% RH) | Appearance ([2]; 2 Weeks 40° C./75% RH) | Total impurities ([2]; 2 Weeks 40° C./75% RH) [%] | Appearance ([2]; 2 Weeks 60° C.) | Total impurities ([2]; 2 Weeks 60° C.) | Appearance ([2]; Initial T(0)) | Purity [3, 6] | Purity ([3]; Control) | Purity ([3]; T(0)) | change in appearance on storage [2] | weight gain (DVS) ([5]; at 90% RH) [%] | Structure (SMILES) | also measured
1 | – | – | – | – | – | – | – | – | – | – | – | – | – | – | – | – | – | – | – | – | C=C(F)C(=O)N1CCN(c2nc(OC[C@@H]3CCCN3C)nc3c2CCN(c2cccc4cccc(Cl)c24)C3)C[C@@H]1CC#N [API standard] | Total impurities (%) ([1]; API standard): 0.71%
2 | Tan Solid | 1.42 | Tan Solid | 2.36 | Brown Solid | 5.93 | Tan Solid | 1.86 | Light Brown | 5.73% | Tan Solid | 1.95 | Brown Solid | 9.89% | Tan Solid | 91.25 | 98.42 | 98.59 | – | – | C=C(F)C(=O)N1CCN(c2nc(OC[C@@H]3CCCN3C)nc3c2CCN(c2cccc4cccc(Cl)c24)C3)C[C@@H]1CC#N [Amorphous, 2-[(2S)-4-[7-(8-chloro-1-naphthyl)-2-[[(2S)-1-methylpyrrolidin-2-yl]methoxy]-6,8-dihydro-5H-pyrido[3,4-d]pyrimidin-4-yl]-1-(2-fluoroprop-2-enoyl)piperazin-2-yl]acetonitrile] | Total impurities ([2]; 2 Months 40° C./75% RH, listed as amorphous material): 5.7%; Total impurities ([2]; 2 Weeks 60° C., listed as amorphous material): 9.9%; Color change on storage ([2]; 60° C. condition and after two months at 40° C./75% RH): changed from tan to brown/light brown; Total impurities ([2]; Initial T(0), listed as amorphous material): 1.4%; Total impurities (%) ([1]; 25° C./60% RH, 1 month): 2.21%; Total impurities (%) ([1]; 40° C./75% RH, 1 month, open): 2.98%; Total impurities (%) ([1]; 40° C./75% RH, 1 month, listed as MRTX849 amorphous): 3.28%
3 | – | – | – | – | – | – | – | – | – | – | – | – | – | – | – | – | – | – | – | – | C=C(F)C(=O)N1CCN(c2nc(OC[C@@H]3CCCN3C)nc3c2CCN(c2cccc4cccc(Cl)c24)C3)C[C@@H]1CC#N [MRTX849 crystalline, 2-[(2S)-4-[7-(8-chloro-1-naphthyl)-2-[[(2S)-1-methylpyrrolidin-2-yl]methoxy]-6,8-dihydro-5H-pyrido[3,4-d]pyrimidin-4-yl]-1-(2-fluoroprop-2-enoyl)piperazin-2-yl]acetonitrile] | Total impurities (%) ([1]; 40° C./75% RH, 1 month): 0.77%
4 | – | – | – | – | – | – | – | – | – | – | – | – | – | – | – | – | – | – | – | – | C=C(F)C(=O)N1CCN(c2nc(OC[C@@H]3CCCN3C)nc3c2CCN(c2cccc4cccc(Cl)c24)C3)C[C@@H]1CC#N [Form E, 2-[(2S)-4-[7-(8-chloro-1-naphthyl)-2-[[(2S)-1-methylpyrrolidin-2-yl]methoxy]-6,8-dihydro-5H-pyrido[3,4-d]pyrimidin-4-yl]-1-(2-fluoroprop-2-enoyl)piperazin-2-yl]acetonitrile Form E] | gradual weight gain (DVS) ([4]; between 5% to 96% RH): 1.2%
5 | Off-white | 0.98 | Off-white | 1.04 | Off-white | 1.27 | Off-white | 1.06 | Off-white | 1.2% and 1.16% | Off-white | 1.07 | Off-white | 1.4% and 1.43% | Off-white | 96.74 | 98.91 | 98.86 | no change in appearance | 0.6 | C=C(F)C(=O)N1CCN(c2nc(OC[C@@H]3CCCN3C)nc3c2CCN(c2cccc4cccc(Cl)c24)C3)C[C@@H]1CC#N [Form A, 2-[(2S)-4-[7-(8-chloro-1-naphthyl)-2-[[(2S)-1-methylpyrrolidin-2-yl]methoxy]-6,8-dihydro-5H-pyrido[3,4-d]pyrimidin-4-yl]-1-(2-fluoroprop-2-enoyl)piperazin-2-yl]acetonitrile Form A] | observed weight gain (DVS) ([4]; from 5% to 90% RH): 0.4%; weight gain (DVS) ([5]; at 40% RH): about 0.1%
6 | Creamy | 0.23 | Creamy | 0.35 | Creamy | 0.31 | Creamy | – | Creamy | 0.4% and 0.44% | Creamy | 0.37 | Creamy | 0.4% | Creamy | 98.41 | 99.74 | 99.75 | no change in appearance | 2.5 | C=C(F)C(=O)N1CCN(c2nc(OC[C@@H]3CCCN3C)nc3c2CCN(c2cccc4cccc(Cl)c24)C3)C[C@@H]1CC#N [Form B, 2-[(2S)-4-[7-(8-chloro-1-naphthyl)-2-[[(2S)-1-methylpyrrolidin-2-yl]methoxy]-6,8-dihydro-5H-pyrido[3,4-d]pyrimidin-4-yl]-1-(2-fluoroprop-2-enoyl)piperazin-2-yl]acetonitrile Form B] | Total impurities ([2]; Initial T(0)): 0.3%; water corresponding to DVS weight gain ([4]; 5% to 95% RH): 1.3 mol water; weight gain (DVS) ([4]; between 5% and 55% RH): 0.2 wt %; weight gain increase (DVS) ([4]; between 55% and 95% RH): 3.5%; weight change (DVS) on desorption ([5]; at 50% RH after desorption from 70% RH): 0.4%; weight gain (DVS) ([5]; at 60% RH): about 0.6%; weight change (DVS) on desorption ([5]; at 70% RH after desorption from 90% RH): 2.2%; weight gain (DVS) ([5]; at 70% RH): 2.9%
